In ChEMBL document CHEMBL4428091, “Design and optimization of (3-aryl-1H-indazol-6-yl)spiro[cyclopropane-1,3'-indolin]-2'-ones as potent PLK4 inhibitors with oral antitumor efficacy” (Bioorg Med Chem Lett, 2016):

Assays:
[1] = Lipophilicity, log D of the compound at pH 7.4; format: physicochemical; settings: buffer
HCC1954 = experiment: Growth inhibition of human HCC1954; format: functional
MCF7 = experiment: Growth inhibition of human MCF7; format: functional
[2] = molecular target: T1, Receptor-type tyrosine-protein kinase FLT3 (Homo sapiens, UniProt P36888); experiment: Inhibition of FLT3 (unknown origin)
T1 sequence (P36888 whole entry): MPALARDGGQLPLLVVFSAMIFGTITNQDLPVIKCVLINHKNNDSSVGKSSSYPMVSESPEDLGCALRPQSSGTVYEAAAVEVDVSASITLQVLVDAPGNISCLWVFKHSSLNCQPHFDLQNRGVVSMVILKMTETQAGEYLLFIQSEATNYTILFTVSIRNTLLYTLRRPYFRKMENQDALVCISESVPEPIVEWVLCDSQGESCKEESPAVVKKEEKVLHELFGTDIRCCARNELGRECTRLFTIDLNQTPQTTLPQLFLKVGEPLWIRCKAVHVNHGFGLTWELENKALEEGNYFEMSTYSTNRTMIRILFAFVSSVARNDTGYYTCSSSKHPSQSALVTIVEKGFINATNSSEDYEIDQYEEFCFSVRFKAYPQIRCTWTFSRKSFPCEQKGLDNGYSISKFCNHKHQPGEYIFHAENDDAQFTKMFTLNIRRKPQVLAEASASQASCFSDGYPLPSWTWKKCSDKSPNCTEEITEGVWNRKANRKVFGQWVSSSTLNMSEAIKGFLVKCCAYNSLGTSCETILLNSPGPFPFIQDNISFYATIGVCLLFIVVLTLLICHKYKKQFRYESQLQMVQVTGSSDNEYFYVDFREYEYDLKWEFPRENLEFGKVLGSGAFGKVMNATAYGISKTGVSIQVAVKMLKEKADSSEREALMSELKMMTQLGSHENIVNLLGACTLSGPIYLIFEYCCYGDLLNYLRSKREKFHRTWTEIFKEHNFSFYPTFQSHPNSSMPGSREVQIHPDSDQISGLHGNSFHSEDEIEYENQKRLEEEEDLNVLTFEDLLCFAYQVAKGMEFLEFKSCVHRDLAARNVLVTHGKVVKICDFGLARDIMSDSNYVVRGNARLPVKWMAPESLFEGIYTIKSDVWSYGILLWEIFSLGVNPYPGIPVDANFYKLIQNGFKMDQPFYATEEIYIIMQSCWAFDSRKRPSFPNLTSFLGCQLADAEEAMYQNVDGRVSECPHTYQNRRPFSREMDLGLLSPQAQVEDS

[3] = molecular target: T2, Serine/threonine-protein kinase PLK4 (Homo sapiens, UniProt O00444); experiment: Inhibition of PLK4 (unknown origin)
T2 sequence (O00444 whole entry): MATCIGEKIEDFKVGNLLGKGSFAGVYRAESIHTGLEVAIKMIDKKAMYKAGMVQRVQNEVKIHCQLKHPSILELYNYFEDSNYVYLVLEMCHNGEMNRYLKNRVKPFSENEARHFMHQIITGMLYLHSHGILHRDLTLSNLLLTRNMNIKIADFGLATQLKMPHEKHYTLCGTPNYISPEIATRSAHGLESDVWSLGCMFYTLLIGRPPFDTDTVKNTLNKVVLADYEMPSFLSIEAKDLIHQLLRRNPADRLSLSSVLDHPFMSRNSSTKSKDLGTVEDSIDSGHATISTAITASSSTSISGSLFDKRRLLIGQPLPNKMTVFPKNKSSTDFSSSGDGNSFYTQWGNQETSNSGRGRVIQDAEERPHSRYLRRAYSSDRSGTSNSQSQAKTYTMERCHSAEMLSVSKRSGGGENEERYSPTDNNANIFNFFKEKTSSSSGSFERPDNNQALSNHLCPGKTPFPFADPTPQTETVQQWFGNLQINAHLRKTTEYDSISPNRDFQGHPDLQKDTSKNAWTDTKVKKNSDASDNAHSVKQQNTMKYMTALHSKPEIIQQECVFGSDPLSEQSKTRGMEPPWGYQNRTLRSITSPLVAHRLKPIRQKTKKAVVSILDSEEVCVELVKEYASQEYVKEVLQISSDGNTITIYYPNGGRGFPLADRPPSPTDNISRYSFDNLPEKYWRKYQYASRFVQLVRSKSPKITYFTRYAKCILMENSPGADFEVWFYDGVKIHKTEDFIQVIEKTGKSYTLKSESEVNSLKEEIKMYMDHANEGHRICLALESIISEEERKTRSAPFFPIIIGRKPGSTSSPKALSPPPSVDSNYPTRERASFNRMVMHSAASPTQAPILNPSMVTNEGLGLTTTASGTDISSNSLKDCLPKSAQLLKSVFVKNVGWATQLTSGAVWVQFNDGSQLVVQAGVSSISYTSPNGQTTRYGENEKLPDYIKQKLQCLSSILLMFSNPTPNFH

MDA-MB-468 [4] = experiment: Growth inhibition of human MDA-MB-468 cells; format: functional
[5] = Dissociation constant, pKa of the compound; format: physicochemical
[6] = Cmax in mouse at 25 mg/kg, po; format: ADME, organism-based; design: dose 25 mg/kg, route oral; settings: in vivo, read-out: Cmax
CYP2C9 = CYP2C9 (Homo sapiens, UniProt P11712); experiment: Inhibition of CYP2C9 (unknown origin) at 1 uM; format: ADME
Chain of CYP2C9 (P11712 whole entry): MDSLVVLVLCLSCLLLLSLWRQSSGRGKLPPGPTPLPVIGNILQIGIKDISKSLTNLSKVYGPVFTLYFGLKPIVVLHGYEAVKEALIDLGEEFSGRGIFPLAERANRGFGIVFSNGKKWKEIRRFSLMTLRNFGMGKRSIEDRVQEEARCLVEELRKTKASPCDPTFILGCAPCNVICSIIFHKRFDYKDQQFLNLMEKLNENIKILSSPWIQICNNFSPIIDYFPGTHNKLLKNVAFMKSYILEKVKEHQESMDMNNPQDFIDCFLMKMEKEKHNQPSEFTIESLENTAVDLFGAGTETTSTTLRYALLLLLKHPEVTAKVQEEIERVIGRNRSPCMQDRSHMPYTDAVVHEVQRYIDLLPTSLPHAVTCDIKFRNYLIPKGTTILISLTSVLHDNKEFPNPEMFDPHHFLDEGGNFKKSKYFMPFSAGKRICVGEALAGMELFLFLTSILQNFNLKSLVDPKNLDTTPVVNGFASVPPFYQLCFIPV

CYP3A4 = CYP3A4 (Homo sapiens, UniProt P08684); experiment: Inhibition of CYP3A4 (unknown origin) at 1 uM; format: ADME
Chain of CYP3A4 (P08684 whole entry): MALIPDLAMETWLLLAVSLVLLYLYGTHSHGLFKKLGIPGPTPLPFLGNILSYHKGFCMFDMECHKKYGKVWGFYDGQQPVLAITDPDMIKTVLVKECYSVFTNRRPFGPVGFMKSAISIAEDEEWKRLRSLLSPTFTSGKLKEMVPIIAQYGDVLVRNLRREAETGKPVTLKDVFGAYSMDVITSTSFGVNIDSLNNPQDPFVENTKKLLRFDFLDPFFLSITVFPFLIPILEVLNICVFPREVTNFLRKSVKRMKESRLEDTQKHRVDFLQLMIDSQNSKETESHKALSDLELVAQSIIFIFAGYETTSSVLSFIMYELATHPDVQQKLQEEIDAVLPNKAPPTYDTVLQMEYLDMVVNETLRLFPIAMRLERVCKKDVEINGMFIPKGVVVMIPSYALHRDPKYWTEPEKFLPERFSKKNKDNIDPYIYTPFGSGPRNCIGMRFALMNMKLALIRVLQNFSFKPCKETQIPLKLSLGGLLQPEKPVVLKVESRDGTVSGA

Aurora kinase B = Aurora kinase B (Homo sapiens, UniProt Q96GD4); experiment: Inhibition of AURKB (unknown origin)
Chain of Aurora kinase B (Q96GD4 whole entry): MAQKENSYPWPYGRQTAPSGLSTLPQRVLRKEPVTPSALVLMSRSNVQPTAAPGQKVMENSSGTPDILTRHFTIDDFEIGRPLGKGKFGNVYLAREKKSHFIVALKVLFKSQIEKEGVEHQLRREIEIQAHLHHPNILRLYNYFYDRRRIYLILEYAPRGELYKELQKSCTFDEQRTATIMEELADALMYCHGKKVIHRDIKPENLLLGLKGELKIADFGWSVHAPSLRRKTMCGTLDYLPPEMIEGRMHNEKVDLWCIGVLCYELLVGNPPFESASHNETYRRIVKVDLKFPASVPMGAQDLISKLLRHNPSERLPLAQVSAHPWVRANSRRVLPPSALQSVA

Aurora kinase A = molecular target: T3, Aurora kinase A (Homo sapiens, UniProt O14965); experiment: Inhibition of AURKA (unknown origin)
T3 sequence (O14965 whole entry): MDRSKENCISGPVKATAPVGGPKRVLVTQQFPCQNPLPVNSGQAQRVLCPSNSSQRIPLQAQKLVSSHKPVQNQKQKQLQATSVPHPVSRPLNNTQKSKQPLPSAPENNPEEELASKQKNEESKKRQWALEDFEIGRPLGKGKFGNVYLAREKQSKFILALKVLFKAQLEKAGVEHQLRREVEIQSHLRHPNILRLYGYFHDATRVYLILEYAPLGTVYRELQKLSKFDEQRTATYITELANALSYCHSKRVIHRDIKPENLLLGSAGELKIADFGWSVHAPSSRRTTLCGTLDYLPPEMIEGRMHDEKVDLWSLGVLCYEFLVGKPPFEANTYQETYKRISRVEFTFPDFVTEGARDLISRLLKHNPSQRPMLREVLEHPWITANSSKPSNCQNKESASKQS

[7] = molecular target: Vascular endothelial growth factor receptor 2 (Homo sapiens, UniProt P35968); experiment: Inhibition of KDR (unknown origin)
Chain of Vascular endothelial growth factor receptor 2 (P35968 whole entry): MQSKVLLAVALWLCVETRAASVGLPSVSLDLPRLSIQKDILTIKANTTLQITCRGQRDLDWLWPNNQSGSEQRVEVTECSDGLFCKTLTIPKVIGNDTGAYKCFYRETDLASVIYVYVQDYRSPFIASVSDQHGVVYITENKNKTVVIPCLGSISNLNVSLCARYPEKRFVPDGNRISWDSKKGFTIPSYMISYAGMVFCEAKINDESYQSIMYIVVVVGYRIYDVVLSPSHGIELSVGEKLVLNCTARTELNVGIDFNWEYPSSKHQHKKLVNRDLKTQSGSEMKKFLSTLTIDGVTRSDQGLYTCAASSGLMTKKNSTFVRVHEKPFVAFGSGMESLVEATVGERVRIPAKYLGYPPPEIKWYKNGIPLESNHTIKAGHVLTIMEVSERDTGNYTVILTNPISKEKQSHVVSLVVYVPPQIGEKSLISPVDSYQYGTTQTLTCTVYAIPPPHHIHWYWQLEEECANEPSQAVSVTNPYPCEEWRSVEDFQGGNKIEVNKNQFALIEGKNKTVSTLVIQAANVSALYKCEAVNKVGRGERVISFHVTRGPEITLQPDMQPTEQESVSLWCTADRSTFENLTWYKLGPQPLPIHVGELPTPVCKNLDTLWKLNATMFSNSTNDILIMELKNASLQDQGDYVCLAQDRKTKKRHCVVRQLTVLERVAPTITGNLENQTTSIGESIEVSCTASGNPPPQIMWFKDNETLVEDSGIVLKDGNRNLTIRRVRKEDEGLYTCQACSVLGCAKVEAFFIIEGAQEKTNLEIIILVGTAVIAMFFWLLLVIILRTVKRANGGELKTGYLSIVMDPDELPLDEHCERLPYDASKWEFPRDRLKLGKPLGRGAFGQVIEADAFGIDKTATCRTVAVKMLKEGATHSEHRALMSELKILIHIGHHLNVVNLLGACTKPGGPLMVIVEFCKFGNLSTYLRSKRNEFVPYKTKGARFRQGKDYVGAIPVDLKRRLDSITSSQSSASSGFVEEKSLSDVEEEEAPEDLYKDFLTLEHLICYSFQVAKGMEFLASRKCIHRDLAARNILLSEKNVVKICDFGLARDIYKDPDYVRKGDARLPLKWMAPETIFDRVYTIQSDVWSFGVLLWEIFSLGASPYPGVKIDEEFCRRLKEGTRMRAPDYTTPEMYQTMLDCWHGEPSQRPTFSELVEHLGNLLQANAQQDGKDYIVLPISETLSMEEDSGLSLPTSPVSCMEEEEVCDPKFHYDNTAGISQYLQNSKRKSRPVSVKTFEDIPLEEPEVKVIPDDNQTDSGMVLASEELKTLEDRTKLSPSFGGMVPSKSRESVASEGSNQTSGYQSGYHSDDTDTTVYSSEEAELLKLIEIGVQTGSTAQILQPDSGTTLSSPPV

[8] = AUC in mouse at 25 mg/kg, po; format: ADME, organism-based; settings: in vivo
CYP2C19 = CYP2C19 (Homo sapiens, UniProt P33261); experiment: Inhibition of CYP2C19 (unknown origin) at 1 uM; format: ADME
Chain of CYP2C19 (P33261 whole entry): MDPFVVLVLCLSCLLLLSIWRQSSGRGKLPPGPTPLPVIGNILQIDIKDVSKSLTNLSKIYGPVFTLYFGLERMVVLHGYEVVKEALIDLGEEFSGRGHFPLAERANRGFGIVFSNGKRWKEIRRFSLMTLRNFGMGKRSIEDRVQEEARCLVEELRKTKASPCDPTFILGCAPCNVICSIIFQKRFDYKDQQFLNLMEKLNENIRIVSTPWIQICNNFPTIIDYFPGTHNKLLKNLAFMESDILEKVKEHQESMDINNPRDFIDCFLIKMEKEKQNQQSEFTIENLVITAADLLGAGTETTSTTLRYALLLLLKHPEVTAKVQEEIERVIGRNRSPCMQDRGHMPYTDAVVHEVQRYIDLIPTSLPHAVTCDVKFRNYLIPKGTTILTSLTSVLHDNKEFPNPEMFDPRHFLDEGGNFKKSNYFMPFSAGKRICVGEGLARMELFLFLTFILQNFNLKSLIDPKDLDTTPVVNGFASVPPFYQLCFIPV

[9] = Half life in human microsomes; format: ADME, Microsome
[10] = Half life in mouse microsomes; format: ADME, Microsome
[11] = Clearance in rat at 1 mg/kg, iv; format: ADME, organism-based; settings: in vivo
[12] = Toxicity in mouse xenografted with human MDA-MB-468 cells assessed as body weight loss at 37.5 mg/kg, po qd for 21 days measured during compound dosing relative to vehicle control; format: organism-based; settings: in vivo, 504 h
[13] = Oral bioavailability in rat at 5 mg/kg; format: ADME, organism-based; settings: in vivo
[14] = AUC in rat at 5 mg/kg, po; format: ADME, organism-based; settings: in vivo, read-out: AUC
[15] = Half life in rat at 1 mg/kg, iv; format: ADME, organism-based; settings: in vivo
MDA-MB-468 [16] = experiment: Antitumor activity against human MDA-MB-468 cells xenografted in mouse assessed as tumor growth inhibition at 37.5 mg/kg, po qd for 21 days measured on day 21 post last dose relative to vehicle control; format: functional; settings: MDA-MB-468, po, 504 h, read-out: TGI
[17] = AUC in rat at 1 mg/kg, iv; format: ADME, organism-based; settings: in vivo

| SMILES | logD [1] | GI50 (HCC1954) [µM] | GI50 (MCF7) [µM] | IC50 [2] [µM] | IC50 [3] [µM] | GI50 (MDA-MB-468 [4]) [µM] | Cmax [6] [ng/mL] | inhibition at 1 µM (CYP2C9) [%] | inhibition at 1 µM (CYP3A4) [%] | IC50 (Aurora kinase B) [µM] | IC50 (Aurora kinase A) [µM] | AUC [8] [ng·h/mL] | inhibition at 1 µM (CYP2C19) [%] | half-life [9] [min] | half-life [10] [min] | clearance [11] [mL/min/kg] | bioavailability [13] [%] | AUC [14] [ng·h/mL] | half-life [15] [min] | AUC [17] [ng·h/mL] | other results |
| --- | --- | --- | --- | --- | --- | --- | --- | --- | --- | --- | --- | --- | --- | --- | --- | --- | --- | --- | --- | --- | --- |
| COc1ccc2c(c1)[C@]1(C[C@H]1c1ccc3c(-c4ccc(C5(F)CCN(C)CC5)cc4)n[nH]c3c1)C(=O)N2 | 4 | 1.42 | 0.15 | 0.2 | 0.0015 | 0.22 |  |  |  |  |  |  |  |  |  |  |  |  |  |  | pKa [5]: 7.7 |
| COc1ccc2c(c1)[C@]1(C[C@H]1c1ccc3c(-c4ccc(N5C[C@@H](C)N[C@@H](C)C5)cc4)n[nH]c3c1)C(=O)N2 | 3.4 | 8.8 | 0.03 | 0.23 | 0.0012 | 0.0058 | 110 | 44 | -3 | 0.013 | > 1 | 170 | 54 | > 60 | 43 |  |  |  |  |  | IC50 [7]: > 5 µM |
| CCN1CCN(c2ccc(-c3n[nH]c4cc([C@@H]5C[C@@]56C(=O)Nc5ccc(OC)cc56)ccc34)cc2)CC1 | 4.8 | 0.24 | 0.0063 | 0.062 | 0.0016 | 0.031 | 1100 | 37 | 6 | 0.0085 | > 1 | 3000 | 60 | > 60 | 15 | 55 | 11 | 310 | 96 | 310 | Activity [12]: < 20%; inhibition in vivo at 37.5 mg/kg (MDA-MB-468 [16]): 48% |
| COc1ccc2c(c1)[C@]1(C[C@H]1c1ccc3c(-c4ccc(N5CCN(C)CC5)cc4)n[nH]c3c1)C(=O)N2 | 4 | 1.4 | 0.001 | 0.045 | 0.00094 | 0.015 | 710 | 35 | 3 | 0.0069 | > 1 | 1830 | 33 | 19 | 9 | 68.3 | 22 | 260 | 78 | 270 | Activity [12]: < 20%; IC50 [7]: 9.4 µM; inhibition in vivo at 37.5 mg/kg (MDA-MB-468 [16]): 96% |
| COc1ccc2c(c1)[C@]1(C[C@H]1c1ccc3c(-c4ccc(N5CCN(CCO)CC5)cc4)n[nH]c3c1)C(=O)N2 | 4 | 3 | 1.7 | 0.077 | 0.0012 | 0.068 | 250 | 41 | 11 | 0.007 | > 1 | 270 | 28 | > 60 | 28 | 76.7 | 11 | 130 | 84 | 220 |  |
| COc1ccc2c(c1)[C@]1(C[C@H]1c1ccc3c(-c4ccc(N5CCN(C)CC5)nc4)n[nH]c3c1)C(=O)N2 | 3.3 | 3.3 | 0.1 | 0.097 | 0.00069 |  | 71 | 34 | 6 | 0.01 | > 1 | 140 | 30 | 20 | 8 | 63.3 | 10 | 140 | 96 | 270 | IC50 [7]: 14 µM |
